Data taken from US20230026869A1, “CRYSTAL FORM OF NUCLEOPROTEIN INHIBITOR AND USE THEREOF” (CHIA TAI TIANQING PHARMACEUTICAL GROUP CO., LTD., priority 2019, published 2023).
pIC50: −log10 of the molar value.

Tests used:
[1] = target: T1, CYP1A2 (Homo sapiens, UniProt P05177); assay: Inhibition of human liver microsomal cytochrome P450 isoenzyme CYP1A2; assay type: in vitro ADME; conditions: human liver microsomes
T1 construct: from tissue; host or cells: human liver microsomes
T1 sequence (P05177 1-516): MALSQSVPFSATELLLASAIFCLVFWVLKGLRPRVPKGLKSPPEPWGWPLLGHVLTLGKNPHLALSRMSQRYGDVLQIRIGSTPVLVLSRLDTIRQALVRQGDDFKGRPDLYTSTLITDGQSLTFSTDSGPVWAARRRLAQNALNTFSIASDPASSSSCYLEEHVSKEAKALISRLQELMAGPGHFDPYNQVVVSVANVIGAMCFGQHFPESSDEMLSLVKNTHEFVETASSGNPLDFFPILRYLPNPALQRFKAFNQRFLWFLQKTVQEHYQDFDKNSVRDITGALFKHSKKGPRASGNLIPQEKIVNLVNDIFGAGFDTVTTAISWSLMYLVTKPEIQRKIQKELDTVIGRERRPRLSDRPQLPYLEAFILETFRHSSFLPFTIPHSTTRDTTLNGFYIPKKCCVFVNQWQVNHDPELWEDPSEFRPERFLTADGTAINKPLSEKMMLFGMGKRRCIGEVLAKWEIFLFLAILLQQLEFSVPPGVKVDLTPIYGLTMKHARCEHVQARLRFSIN
Description: (§1) Objective: The inhibitory effect of the test compound on the activity of human liver microsomal cytochrome P450 isoenzymes (CYP1A2, CYP2C9, CYP2C19, CYP2D6 and CYP3A4) was determined. […]

[2] = system: hepatitis B virus; assay: In vivo efficacy study, HDJ/HBV mouse model (HBV DNA in plasma and liver by qPCR); design: species or system mice
Description: Objective: The efficacy of the compound against hepatitis B virus in mice was determined through the HDJ/HBV mouse model.
Preparation of compound: the solvent was 10% polyethylene glycol-15 hydroxystearate; a certain amount of the tested compound of formula (I) was dissolved in an aqueous solution containing 10% polyethylene glycol-15 hydroxystearate, and the mixture was vortexed and sonicated to prepare a homogeneous suspension, and the suspension was stored at 4° C. for later use.
High pressure injection of the HBV plasmid DNA solution via the tail vein of mice: the day of plasmid injection was day 0, the day after injection was day 1, and so on. On day 0, all animals were injected by tail vein with a saline solution containing 10 μg of plasmid DNA at a volume of […] of body weight, and the injection was completed within 5 seconds.
Administration: all mice were administered intragastrically twice a day (8/16 h interval) on day 1-6 and once on day 7. All mice were euthanized in the afternoon on day 7. The body weight of the mice, which was monitored every day, remained stable throughout the experiment.
Sample collection: blood was collected from the submandibular vein 4 h after the first administration in the morning on days 1, 3, and 5. All blood samples were collected in K2-EDTA anticoagulation tubes, and centrifuged for 10 min at 4° C., 7000 g to prepare about 40 μL of plasma. All mice were euthanized by CO2 four hours after administration in the morning on day 7. Blood was collected from the heart, and the plasma preparation method was the same as above. Two liver tissues were collected with 70-100 mg each, and quick-frozen by liquid nitrogen. After all samples were collected, they were stored in a refrigerator (−80° C.) for HBV DNA content detection.
Sample analysis: all plasma samples and liver samples were detected for HBV DNA by qPCR.

[3] = target: T2, CYP3A4 (Homo sapiens, UniProt P08684); assay: Inhibition of human liver microsomal cytochrome P450 isoenzyme CYP3A4; assay type: in vitro ADME; conditions: human liver microsomes
T2 construct: from tissue; host or cells: human liver microsomes
T2 sequence (P08684 whole entry): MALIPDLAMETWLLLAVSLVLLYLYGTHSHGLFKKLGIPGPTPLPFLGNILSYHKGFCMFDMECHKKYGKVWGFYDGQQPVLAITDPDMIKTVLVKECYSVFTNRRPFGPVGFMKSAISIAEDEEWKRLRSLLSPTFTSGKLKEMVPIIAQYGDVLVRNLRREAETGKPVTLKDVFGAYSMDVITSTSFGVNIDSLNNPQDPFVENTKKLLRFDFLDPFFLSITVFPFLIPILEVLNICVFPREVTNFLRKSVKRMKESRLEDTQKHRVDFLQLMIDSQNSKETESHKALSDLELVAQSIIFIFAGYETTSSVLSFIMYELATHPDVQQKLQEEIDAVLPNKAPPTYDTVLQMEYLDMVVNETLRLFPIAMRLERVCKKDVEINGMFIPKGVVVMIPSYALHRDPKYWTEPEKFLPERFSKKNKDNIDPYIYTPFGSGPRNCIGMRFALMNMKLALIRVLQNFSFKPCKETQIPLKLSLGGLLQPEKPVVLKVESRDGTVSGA
Description: as §1

[4] = Pharmacokinetic study in Balb/c mice by oral administration and intravenous injection; assay type: in vivo; conditions: mouse, Balb/c female mice, plasma
Description: Pharmacokinetic Study of the Test Compound in Balb/c Mice by Oral Administration and Intravenous Injection: The test compound was mixed with a solution containing dimethyl sulfoxide (101), polyethylene glycol 400 (600%) and water (300), and the mixture was vortexed and sonicated to prepare a 0.2 mg/mL clear solution, which was filtered through a millipore filter for later use. Balb/c female mice aged 7 to 10 weeks were intravenously injected with the candidate compound solution at a dose of 1 mg/kg. The test compound was mixed with an aqueous solution containing 10% polyoxyethylene stearate, and the mixture was vortexed and sonicated to prepare a 0.3 mg/mL clear solution for later use. Balb/c female mice aged 7 to 10 weeks were orally administered with the candidate compound solution at a dose of 3 mg/kg. Whole-blood was collected and plasma was prepared. Drug concentration was analyzed by LC-MS/MS and pharmacokinetic parameters were calculated with Phoenix WinNonlin software.

[5] = 10 mg/kg intragastrically twice a day
[6] = 30 mg/kg intragastrically twice a day

With `CC1(NC(=O)C(=O)c2c(Cl)c(C(=O)Nc3cc(F)c(F)c(F)c3)c3n2CCC3)CCC(CC(=O)O)CC1` (centres unmarked) [Compound of formula (I)] the pIC50 [1] was less than 4.30, the “HBV-DNA reduction, Liver (day 7)” value [2, 5] was 0.94 Δ Log10 copies/100 ng and the “HBV-DNA reduction, Plasma (day 5)” value [2, 5] was 2.0 Δ Log10 copies/μL. The “HBV-DNA reduction, Liver (day 7)” value [2, 6] was 2.36 Δ Log10 copies/100 ng, the “HBV-DNA reduction, Plasma (day 5)” value [2, 6] was 3.57 Δ Log10 copies/μL and the pIC50 [3] was less than 4.30. For the same molecule, the AUC ([4]; 3 mg/kg, PO 3 mpk, read-out: Area under the plasma concentration-time curve AUC) was 2.27 µM·h, the Cmax ([4]; 3 mg/kg, PO 3 mpk, read-out: Peak concentration Cmax) was 1480 nM and the Tmax ([4]; 3 mg/kg, PO 3 mpk, read-out: Peak time Tmax) was 0.5 h. The bioavailability ([4]; 3 mg/kg, PO 3 mpk vs IV 1 mg/kg, read-out: Bioavailability (F %)) was 51%, the Vd ([4]; IV 1 mg/kg, read-out: Apparent volume of distribution (Vdss)) was 3.1 L/kg and the AUC(0-t) ([4]; IV 1 mg/kg, read-out: Area under the plasma concentration-time curve AUC0-24 h) was 1.49 µM·h. It also gave a clearance ([4]; IV 1 mg/kg, read-out: Clearance (CL)) of 20 mL/min/kg and a half-life ([4]; IV 1 mg/kg, read-out: Half-life T1/2 (converted)) of 1.95 h.
